# From PubChem BioAssay AID1963958 (Molecular Pharmacology Branch, DTP, NCI, 2024)
# pIC50: −log10 of the molar value.
# System: MDA-MB-231 multicell spheroids, viability
# Assay: Anticancer human tumor MDA-MB-231 cell line growth inhibition [PI3K];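 also: spheroids exposed to agents for seven days before reading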;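 as to viability, T/C: percent of vehicle control luminescence with DMSO treated spheroids as 100%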
# Conditions: for pIC50: curve of first compound; for viability, T/C: stronger effect = lower value
# Summary of the method: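 Complex 3D spheroids (cancer cells + endothelial HUVEC + mesenchymal stem cells); drug pairs of targeted agent x inavolisib/alpelisib/duvelisib/copanlisib; half-log series from ~Cmax, max 10 microM if Cmax unknown; endpoint viability.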
# [1] = second compound 0.0316 µM, first compound 0.0316 µM
# [2] = second compound 0.0316 µM, first compound 0.1 µM
# [3] = second compound 0.0316 µM, first compound 0.316 µM
# [4] = second compound 0.0316 µM, first compound 1 µM
# [5] = second compound 0.0316 µM, first compound 3.16 µM
# [6] = second compound 0.0316 µM, first compound 10 µM
# [7] = second compound 0.1 µM, first compound 0.0316 µM
# [8] = second compound 0.1 µM, first compound 0.1 µM
# [9] = second compound 0.1 µM, first compound 0.316 µM
# [10] = second compound 0.1 µM, first compound 1 µM
# [11] = second compound 0.1 µM, first compound 3.16 µM
# [12] = second compound 0.1 µM, first compound 10 µM
# [13] = second compound 0.316 µM, first compound 0.0316 µM
# [14] = second compound 0.316 µM, first compound 0.1 µM
# [15] = second compound 0.316 µM, first compound 0.316 µM
# [16] = second compound 0.316 µM, first compound 1 µM
# [17] = second compound 0.316 µM, first compound 3.16 µM
# [18] = second compound 0.316 µM, first compound 10 µM
# [19] = second compound 1 µM, first compound 0.0316 µM
# [20] = second compound 1 µM, first compound 0.1 µM
# [21] = second compound 1 µM, first compound 0.316 µM
# [22] = second compound 1 µM, first compound 1 µM
# [23] = second compound 1 µM, first compound 3.16 µM
# [24] = second compound 1 µM, first compound 10 µM
# [25] = second compound 3.16 µM, first compound 0.0316 µM
# [26] = second compound 3.16 µM, first compound 0.1 µM
# [27] = second compound 3.16 µM, first compound 0.316 µM
# [28] = second compound 3.16 µM, first compound 1 µM
# [29] = second compound 3.16 µM, first compound 3.16 µM
# [30] = second compound 3.16 µM, first compound 10 µM
# [31] = second compound 10 µM, first compound 0.0316 µM
# [32] = second compound 10 µM, first compound 0.1 µM
# [33] = second compound 10 µM, first compound 0.316 µM
# [34] = second compound 10 µM, first compound 1 µM
# [35] = second compound 10 µM, first compound 3.16 µM
# [36] = second compound 10 µM, first compound 10 µM
smiles,measurement,setting,value
CC(Cn1ccc(-c2ccc(C#N)c(Cl)c2)n1)NC(=O)c1cc(C(C)O)[nH]n1 (centres undefined) + CC(Nc1ncnc2nc[nH]c12)c1cc2cccc(Cl)c2c(=O)n1-c1ccccc1,pIC50,second compound 0.0316 µM,< 5.00
same,pIC50,second compound 0.1 µM,< 5.00
same,pIC50,second compound 0.316 µM,< 5.00
same,pIC50,second compound 1 µM,< 5.00
same,pIC50,second compound 3.16 µM,< 5.00
same,pIC50,second compound 10 µM,> 7.50
same,"viability, T/C",[1],100%
same,"viability, T/C",[2],95.7%
same,"viability, T/C",[3],99.6%
same,"viability, T/C",[4],98.5%
same,"viability, T/C",[5],96%
same,"viability, T/C",[6],82.3%
same,"viability, T/C",[7],92.9%
same,"viability, T/C",[8],98.3%
same,"viability, T/C",[9],97.9%
same,"viability, T/C",[10],95.2%
same,"viability, T/C",[11],92.4%
same,"viability, T/C",[12],78.4%
same,"viability, T/C",[13],81.9%
same,"viability, T/C",[14],93%
same,"viability, T/C",[15],95%
same,"viability, T/C",[16],88.5%
same,"viability, T/C",[17],87.9%
same,"viability, T/C",[18],75.7%
same,"viability, T/C",[19],70.6%
same,"viability, T/C",[20],79.4%
same,"viability, T/C",[21],78.4%
same,"viability, T/C",[22],79.5%
same,"viability, T/C",[23],72.2%
same,"viability, T/C",[24],64.5%
same,"viability, T/C",[25],61.3%
same,"viability, T/C",[26],61%
same,"viability, T/C",[27],61.4%
same,"viability, T/C",[28],56.2%
same,"viability, T/C",[29],56.9%
same,"viability, T/C",[30],49.2%
same,"viability, T/C",[31],47%
same,"viability, T/C",[32],44.3%
same,"viability, T/C",[33],47.8%
same,"viability, T/C",[34],45.5%
same,"viability, T/C",[35],42%
same,"viability, T/C",[36],36%
CC1(C)CCC(Nc2ncc(C(F)(F)F)c(-c3c[nH]c4c(P(C)(C)=O)c(C#N)ccc34)n2)CN1 (centres undefined) + CC(Nc1ncnc2nc[nH]c12)c1cc2cccc(Cl)c2c(=O)n1-c1ccccc1,pIC50,second compound 0.0316 µM,7.50
same,pIC50,second compound 0.1 µM,7.50
same,pIC50,second compound 0.316 µM,7.50
same,pIC50,second compound 1 µM,> 7.50
same,pIC50,second compound 3.16 µM,> 7.50
same,pIC50,second compound 10 µM,> 7.50
same,"viability, T/C",[1],46.4%
same,"viability, T/C",[2],37.8%
same,"viability, T/C",[3],41.4%
same,"viability, T/C",[4],53.5%
same,"viability, T/C",[5],60.6%
same,"viability, T/C",[6],5.54%
same,"viability, T/C",[7],46.3%
same,"viability, T/C",[8],38.5%
same,"viability, T/C",[9],40.7%
same,"viability, T/C",[10],51.6%
same,"viability, T/C",[11],55.6%
same,"viability, T/C",[12],5.27%
same,"viability, T/C",[13],45.7%
same,"viability, T/C",[14],39.4%
same,"viability, T/C",[15],42.5%
same,"viability, T/C",[16],48.6%
same,"viability, T/C",[17],54.2%
same,"viability, T/C",[18],6.2%
same,"viability, T/C",[19],43.9%
same,"viability, T/C",[20],34.7%
same,"viability, T/C",[21],38.6%
same,"viability, T/C",[22],49.4%
same,"viability, T/C",[23],49.6%
same,"viability, T/C",[24],4.82%
same,"viability, T/C",[25],39.8%
same,"viability, T/C",[26],37%
same,"viability, T/C",[27],42.2%
same,"viability, T/C",[28],44.9%
same,"viability, T/C",[29],36%
same,"viability, T/C",[30],4.74%
same,"viability, T/C",[31],38.4%
same,"viability, T/C",[32],34.6%
same,"viability, T/C",[33],36%
same,"viability, T/C",[34],33.2%
same,"viability, T/C",[35],35.5%
same,"viability, T/C",[36],3.53%
